The values below come from US20240174641A1, “HETEROCYCLIC COMPOUNDS CAPABLE OF […]” (Boehringer Ingelheim International GmbH, priority 2022, published 2024).

One test concerns dog STING (dSTING). The experiment in a line: Dog differential scanning fluorimetry (DSF) assay, thermal shift of dog STING protein. The format is binding. To be noted: DSF (dDSF); 100 μM compound, 3 μM dog STING protein; Tm with ligand minus Tm of protein alone. The method in brief:
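Dog STING residues 149–375, His-tag removed by TEV, tested at 3 μM with 100 μM compound, 5× SYPRO Orange and 2% DMSO in 20 mM Tris, 150 mM NaCl, pH 7.5. Heated 15–95 °C in 0.5 °C steps. Tm from Boltzmann fit, duplicates averaged; ΔTm relative to protein alone.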
In general terms: In DSF a fluorescence change marks the thermal transition of the protein.

For a further test, the target named is STING (Canis lupus familiaris, UniProt A0A8I3MH52). The experiment in a line: Dog whole blood (dWB) assay, IFNb secretion by ELISA. The format is cell-based. As to conditions: canine Interferon-beta (IFNb) ELISA, 4 h incubation at 37° C. As for the experimental part: For the detection of STING activation in physiological environment dog whole blood (dWB) was stimulated by the cyclic dinucleotide cGAMP or a test compound. Pathway activity was monitored by measuring the IFNb production.
Compounds were delivered as 10 mM DMSO solution, diluted and transferred by using an Echo acoustic dispenser to the 384 well assay plate (Greiner #781182), pre-filled with 10 μl 1×HBSS in each well (10×HBSS (+Ca/+Mg), #14065-049, Gibco). Typically, 8 concentrations were used with the highest concentration at 10 μM in the final assay volume followed by approximately 1:4 dilution steps. DMSO concentration was set to 0.1% in the final assay volume. The 384-well assay plate contained 20 test compounds and DMSO in control and cGAMP standard wells. The dog whole blood was collected as Na-Citrate blood (e.g., 3.8% in Monovettes from Sarstedt) and kept at 4° C. overnight until use in the assay. 80 μl of the whole blood samples were transferred to each well of the 384-well assay plates filled with compound/1×HBSS. Blood plates were kept at room temperature for 60 minutes and continuous shaking with 450 rpm, covered with the lid, but not sealed. A 10×cGAMP assay solution was diluted from a 2 mM stock solution in 1×HBSS immediately before use at room temperature. 10 μl of the 10×cGAMP/HBSS were added to the high control wells, whereas HBSS only was added to all compound and low control wells. After covering assay plates with the lid, blood plates were kept for a 4 h incubation at 37° C. in the incubator, without shaking. For the detection of IFNb in dog plasma the ELISA Kit for Canine Interferon Beta (Biotrend #SEA222Ca) was used. Whole blood assay plates were centrifuged at 1000 g for 10 minutes at 8° C. […] was transferred with a 96 well pipetting robotics from the 384 well whole blood plate to the corresponding 96 well ELISA plate, pre-filled with 60 μl assay diluent in each well. Plates were sealed with microplate seals and kept at 4° C. overnight again. ELISA plates were brought to room temperature, followed by a 1 h incubation at 37° C. in the incubator. Detection Reagent A working solution was prepared by diluting Detection Reagent A 1:100 in Assay Reagent A. Liquid was then removed from the 96 well ELISA plate to add 100 μL Detection Reagent A working solution to each well. ELISA plates were covered with the plate sealer and incubated for 1 hour at 37° C. in the incubator. The 1× Wash buffer was prepared by diluting the 30× Wash Buffer Concentrate in H2O. Detection Reagent B working solution was prepared by diluting Detection Reagent B 1:100 in Assay Reagent B. The ELISA plates were washed three times with 350 μl wash buffer and afterwards inverted and blotted against absorbent paper to remove any liquid. 100 μL of Detection Reagent B working solution was added to each well of the ELISA plates, which are then covered with the plate sealer and incubated for 30 minutes at 37° C. in the incubator. After incubation the ELISA assay plates were washed five times with 350 μl wash buffer and were again inverted and blotted against absorbent paper to remove any remaining liquid. 90 μL of TMB Substrate was added to each well of the ELISA plates, which were then covered with the plate sealer and incubated for 15 minutes at 37° C. in the incubator. The reaction was stopped by adding 50 μL stop solution and absorbance was measured at 450 nm immediately.
For data evaluation and calculation, % control calculation of each well was based on the mean of high (cGAMP stimulated control) and mean of low (unstimulated control) controls by using the following standard 4 parameter logistic regression formula:
[y=(a−d)/(1+(x/c)^b)+d] • a=low value, • d=high value, • x=conc M, • c=EC50 M, • b=slope. Dog Liver Microsome (dLM) Assay
In general terms: ELISA stands for enzyme-linked immunosorbent assay.

For orientation: EC50 means the concentration needed to bring the measured effect to its halfway point.

Sequence of STING (A0A8I3MH52 1-374): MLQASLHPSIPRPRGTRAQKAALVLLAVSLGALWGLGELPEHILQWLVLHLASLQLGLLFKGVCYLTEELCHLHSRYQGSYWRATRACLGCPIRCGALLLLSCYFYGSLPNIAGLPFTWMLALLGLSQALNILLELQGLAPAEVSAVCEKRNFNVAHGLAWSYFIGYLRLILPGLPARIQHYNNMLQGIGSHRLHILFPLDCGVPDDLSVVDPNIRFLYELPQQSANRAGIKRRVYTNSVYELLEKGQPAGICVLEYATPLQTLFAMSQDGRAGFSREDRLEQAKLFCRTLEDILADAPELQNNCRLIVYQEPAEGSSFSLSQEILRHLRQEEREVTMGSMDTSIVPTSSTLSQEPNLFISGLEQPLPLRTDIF

With `Cc1cccc2c(-c3c(F)ccc4nn(C)cc34)nn(-c3ccc(N4C[C@H]5C[C@@H]4C[C@@H]5C(=O)O)nc3)c12` [Example 27-2, (1R,4S,5S)-2-(5-{5″-fluoro-2″,7-dimethyl-1H,2″H-[3,4″-biindazol]-1-yl}pyridin-2-yl)-2-azabicyclo[2.2.1]heptane-5-carboxylic acid], the “Delta TM” value with dog STING (dSTING) came out at 35.6 °C. Also, the EC50 on STING came to 247 nM.

Consider `Cc1cccc2c(-c3cccc4nn(C)c(F)c34)nn(-c3ccc(N4CC[C@@H](CC(=O)O)C4)nc3)c12` [Example 16, 2-[(3S)-1-(5-{3″-fluoro-2″,7-dimethyl-1H,2″H-[3,4″-biindazol]-1-yl}pyridin-2-yl)pyrrolidin-3-yl]acetic acid], for which, in the test on dog STING (dSTING), the “Delta TM” value is 34.0 °C. The same compound had an EC50 at STING of 267 nM.

`Cc1cccc2c(-c3c(F)cc(F)c4nn(C)cc34)nn(-c3ccc(N4CC[C@H](CC(=O)O)C4)nc3)c12` [Example 46, 2-[(3R)-1-(5-{5″,7″-difluoro-2″,7-dimethyl-1H,2″H-[3,4″-biindazol]-1-yl}pyridin-2-yl)pyrrolidin-3-yl]acetic acid]: in the test with dog STING (dSTING), the “Delta TM” value was determined as 35.3 °C. The EC50 at STING stood at 261 nM.

As for `Cc1cccc2c(-c3c(F)ccc4nn(C)c(F)c34)nn(-c3ccc(N4C[C@@H]5[C@H](C4)[C@H]5C(=O)O)nc3)c12` [Example 74, (1R,5S,6R)-3-(5-{3″,5″-difluoro-2″,7-dimethyl-1H,2″H-[3,4″-biindazol]-1-yl}pyridin-2-yl)-3-azabicyclo[3.1.0]hexane-6-carboxylic acid], in the test on dog STING (dSTING), the “Delta TM” value is 36.4 °C. For the same compound, it took 160 nM to reach a half-maximal effect on STING (EC50).

Take `Cc1cccc2c(-c3c(F)ccc4nn(C)cc34)nn(-c3ccc(N4CC[C@H](CC(=O)O)C4)nc3)c12` [Example 25, 2-[(3R)-1-(5-{5″-fluoro-2″,7-dimethyl-1H,2″H-[3,4″-biindazol]-1-yl}pyridin-2-yl)pyrrolidin-3-yl]acetic acid]: in the test on dog STING (dSTING), the “Delta TM” value is 37.0 °C. The compound further came in with an EC50 at STING of 283 nM.

Turning to `Cc1cccc2c(-c3c(F)cc(F)c4nn(C)c(F)c34)nn(-c3ccc(N4C[C@@H]5[C@H](C4)[C@H]5C(=O)O)nc3)c12` [Example 76, (1R,5S,6R)-3-(5-{3″,5″,7″-trifluoro-2″,7-dimethyl-1H,2″H-[3,4″- biindazol]-1-yl}pyridin-2-yl)-3-azabicyclo[3.1.0]hexane-6-carboxylic acid], the “Delta TM” value in the test with dog STING (dSTING) was 33.0 °C. Also, the EC50 on STING was determined as 695 nM.

Take `Cc1cccc2c(-c3c(Cl)ccc4nn(C)cc34)nn(-c3ccc(N4C[C@@H]5[C@H](C4)[C@H]5C(=O)O)nc3)c12` [Example 77, (1R,5S,6S)-3-(5-{5″-chloro-2″,7-dimethyl-1H,2″H-[3,4″-biindazol]-1-yl}pyridin-2-yl)-3-azabicyclo[3.1.0]hexane-6-carboxylic acid]: in the test on dog STING (dSTING), the “Delta TM” value stood at 27.4 °C. Also, at STING, the EC50 is 1090 nM.

`CC(=O)N1CCN(c2ccc(-n3nc(-c4c(F)ccc5nn(C)cc45)c4cccc(C)c43)cn2)CC1` [Example 29, 1-[4-(5-{5″-fluoro-2″,7-dimethyl-1H,2″H-[3,4″-biindazol]-1-yl}pyridin-2-yl)piperazin-1-yl]ethan-1-one]: the “Delta TM” value in the test with dog STING (dSTING) worked out at 32.0 °C. The same compound showed an EC50 at STING of 140 nM.

Consider `Cc1cc(F)cc2c(-c3cccc4nn(C)c(F)c34)nn(-c3ccc(N4CCC(C(=O)O)CC4)nc3)c12` [Example 58, 1-(5-{3″,5-difluoro-2″,7-dimethyl-1H,2″H-[3,4″-biindazol]-1-yl}pyridin-2-yl)piperidine-4-carboxylic acid], for which the “Delta TM” value in the test on dog STING (dSTING) worked out at 33.0 °C. Besides, a half-maximal effect at STING (EC50) was put at 207 nM.

For the compound `CC(=O)N1C[C@H]2C[C@@H]1CN2c1ccc(-n2nc(-c3c(F)ccc4nn(C)cc34)c3cccc(C)c32)cn1` [Example 31, 1-[(1R,4R)-5-(5-{5″-fluoro-2″,7-dimethyl-1H,2″H-[3,4″-biindazol]-1-yl}pyridin-2-yl)-2,5-diazabicyclo[2.2.1]heptan-2-yl]ethan-1-one], in the test with dog STING (dSTING), the “Delta TM” value was 30.5 °C. In addition, the EC50 on STING amounted to 101 nM.

For the compound `Cc1c(F)ccc2c(-c3c(F)ccc4nn(C)cc34)nn(-c3ccc(N4C[C@@H]5[C@H](C4)[C@H]5C(=O)O)nc3)c12` [Example 64, (1R,5S,6R)-3-(5-{5″,6-difluoro-2″,7-dimethyl-1H,2″H-[3,4″-biindazol]-1-yl}pyridin-2-yl)-3-azabicyclo[3.1.0]hexane-6-carboxylic acid], the “Delta TM” value in the test on dog STING (dSTING) was found to be 36.5 °C. For the same compound, the EC50 at STING came to 666 nM.

For `Cc1cccc2c(-c3ccc(F)c4nn(C)c(F)c34)nn(-c3ccc(N4C[C@@H]5[C@H](C4)[C@H]5C(=O)O)nc3)c12` [Example 13, (1R,5S,6R)-3-(5-{3″,7″-Difluoro-2″,7-dimethyl-1H,2″H-[3,4″-biindazol]-1-yl}pyridin-2-yl)-3-azabicyclo[3.1.0]hexane-6-carboxylic acid], the “Delta TM” value in the test with dog STING (dSTING) was determined as 33.3 °C. Further, the midpoint of the response on STING, the EC50, lay at 174 nM.

As for `Cc1cccc2c(-c3ccc(F)c4nn(C)cc34)nn(-c3ccc(N4C[C@@H]5[C@H](C4)[C@H]5C(=O)O)nc3)c12` [Example 3, (1R,5S,6R)-3-(5-{7″-Fluoro-2″,7-dimethyl-1H,2″H-[3,4″-biindazol]-1-yl}pyridin-2-yl)-3-azabicyclo[3.1.0]hexane-6-carboxylic acid], in the test with dog STING (dSTING), the “Delta TM” value came to 32.2 °C. Also, at STING, the midpoint of the response, the EC50, lay at 730 nM.

For the compound `Cc1cccc2c(-c3cccc4nn(C)c(F)c34)nn(-c3ccc(N4C[C@H]5C[C@@H]4C[C@@H]5C(=O)O)nc3)c12` [Example 73-1, (1R,4S,5S)-2-(5-{3″-fluoro-2″,7-dimethyl-1H,2″H-[3,4″-biindazol]-1-yl}pyridin-2-yl)-2-azabicyclo[2.2.1]heptane-5-carboxylic acid], in the test on dog STING (dSTING), the “Delta TM” value is 34.5 °C. The EC50 on STING amounted to 87.5 nM.

Take `CC(=O)N1CCN(c2ccc(-n3nc(-c4c(F)cc(F)c5nn(C)cc45)c4cccc(C)c43)cn2)CC1` [Example 49, 1-[4-(5-{5″,7″-difluoro-2″,7-dimethyl-1H,2″H-[3,4″-biindazol]-1-yl}pyridin-2-yl)piperazin-1-yl]ethan-1-one]: in the test with dog STING (dSTING), the “Delta TM” value was 30.5 °C. The compound also registered an EC50 on STING of 416 nM.

In the case of `Cc1c(F)ccc2c(-c3c(F)cc(F)c4nn(C)cc34)nn(-c3ccc(N4CCC(C(=O)O)CC4)nc3)c12` [Example 70, 1-(5-{5″,6,7″-trifluoro-2″,7-dimethyl-1H,2″H-[3,4″-biindazol]-1-yl}pyridin-2-yl)piperidine-4-carboxylic acid], the “Delta TM” value in the test on dog STING (dSTING) stood at 34.5 °C. The compound further had an EC50 on STING of 296 nM.

For `Cc1cccc2c(-c3c(F)ccc4nn(C)cc34)nn(-c3ccc(N4C[C@@H]5[C@H](C4)[C@H]5C(=O)O)nc3)c12` [Example 5, (1R,5S,6S)-3-(5-{5″-Fluoro-2″,7-dimethyl-1H,2″H-[3,4″-biindazol]-1-yl}pyridin-2-yl)-3-azabicyclo[3.1.0]hexane-6-carboxylic acid], the “Delta TM” value with dog STING (dSTING) was 36.5 °C. This compound displayed an EC50 at STING of 282 nM.

As for `Cc1cccc2c(-c3c(F)ccc4nn(C)cc34)nn(-c3ccc(N4CC5CCC4CC5C(=O)O)nc3)c12` (single isomer, unassigned) [Example 28-3], the “Delta TM” value with dog STING (dSTING) was found to be 37.1 °C. For the same compound, the EC50 at STING stood at 222 nM.
